Like-named read-outs stand apart in the source and are kept apart here.
System: blood vessels within the dorsal window chamber
Type: in vivo, Syrian golden hamsters
Settings: for Observations 24 hr post FITC-Dextran administration / Observations immediately post FITC-Dextran administration (extravasation): blue 425 nm; for Leakage of FITC-Dextran, dependence on presence of photosensitizer: light doses used in the evaluable animals of Tables 1-4
Text: Syrian golden hamsters (Charles River Laboratories, Kingston, N.Y.) weighing between 60-70 gram were surgically implanted with titanium back-pack window chambers as described ([…] et al., 1980; Colantuoni et al., 1984; […] et al., 1994). Prior to the surgical procedure, the dorsal surface of the mouse was shaved with electric clippers (Sunbeam Oster 2-Speed, 150 Cadillac Lane, McMinnville, Tenn., 37110) and then the shaved skin covered in a depilatory cream (Nair, Carter Products, New York, N.Y., 10105) for 10 minutes to remove the remaining hair. A dorsal skin fold consisting of two layers of skin and muscle tissue was then sandwiched between two opposing titanium frames (Campus Research Machine Shop, University of California, San Diego 9500 Gilman Drive, La Jolla, Calif.) with a 15 mm circular opening in each. Layers of skin and muscle fascia were separated from the sub-cutaneous tissue, and removed until a thin monolayer of muscle and one layer of intact skin remained. A coverglass (Type Circle 1, Part #12-545-80 sourced from Fisher Scientific, 2761 Walnut Avenue, Tustin, Calif., 92780) held by an expansion ring in the circular window of one titanium frame was then placed on the exposed tissue to allow direct microscopic visualization of the vasculature. The window in the second opposing titanium frame was left open exposing the intact skin. Two days following the implantation of the titanium chamber, an in-dwelling PE10 catheter (VVR Scientific, Westchester, Pa.) was implanted in the carotid artery. The catheter tubing was passed sub-cutaneously from the ventral to the dorsal side of the neck, and exteriorized through the skin at the base of the chamber. The patency of the catheter was ensured by daily flushing of the in-dwelling implanted tip with 0.005-0.01 ml of heparinized saline (40 IU/ml). The heparin was sourced from Upjohn Co., 100 Route […], Prepack, N.J., 07977, and the saline from Abbott Laboratories, North Chicago, Ill., 60064. Microvascular observations using an intra-vital microscope were not undertaken until at least 4 days post-chamber implantation to mitigate against post-surgical trauma, and to confirm that blood vessels within the chamber were functioning and intact and patent. A chamber was considered suitable for subsequent studies if microscopic examination of the preparation met the following criteria (as applied in […] et al., 1994): The intra-vital microscopic studies were undertaken on un-sedated animals held in a Plexiglass tube (Campus Research Machine Shop, University of California, San Diego 9500 Gilman Drive, La Jolla, Calif.) from which the window chamber sandwich protruded horizontally, allowing visualization of the chamber on the microscope stage. The Plexiglass tube acted to restrain the animals without impeding respiration. The intra-vital microscopy was performed using a Leitz Ortholux II (McBain Instruments, Inc., 9601 […] Avenue, Chatsworth, Calif., 91311) fitted with a Leitz Wetzlar 25× saline immersion objective lens, 0.6 numerical aperture (McBain Instruments, Inc., 9601 […] Avenue, Chatsworth, Calif., 91311), a Leitz Wetzlar 10× dry Planfluotar lens, 0.3 numerical aperture (McBain Instruments, Inc., 9601 […] Avenue, Chatsworth, Calif., 91311) and a Leitz Wetzlar 4× EF dry lens, 0.12 numerical aperture (McBain Instruments, Inc., 9601 […] Avenue, Chatsworth, Calif., 91311). A 100 Watt Hg light source (Olympus Corporation, 2 Corporate Center Drive, Melville, N.Y., 11747-3157) was used for both trans- and epi-illumination. For the trans-illumination studies the light was filtered using a 420 nm blue filter which selectively passed light in the region of the maximum absorbance band of hemoglobin, causing the red blood cells to appear as dark objects against a gray background. In addition, a heat filter was placed in the light path prior to the condenser to prevent hyperthermic effects on the tissue being examined.

Effect on venules and veins during PhotoPoint therapy (hamster, in vivo) | Focal constrictions apparent in arterioles and arteries, time following the commencement of PhotoPoint therapy (hamster, in vivo) | Dilation apparent in venules and veins, time following the commencement of PhotoPoint therapy (hamster, in vivo) | SMILES | Observations 24 hr post FITC-Dextran administration (hamster A69, SnET2 1.0 mg/kg i.c., 25 J/cm^2, 44 mW/cm^2) | Observations immediately post FITC-Dextran administration (extravasation) (hamster A69, SnET2 1.0 mg/kg i.c., 25 J/cm^2, 44 mW/cm^2, FITC-Dextran approx. 45 min post PhotoPoint therapy) | Observations 24 hr post FITC-Dextran administration (hamster A70, SnET2 1.0 mg/kg i.c., 50 J/cm^2, 44 mW/cm^2) | Observations immediately post FITC-Dextran administration (extravasation) (hamster A70, SnET2 1.0 mg/kg i.c., 50 J/cm^2, 44 mW/cm^2, FITC-Dextran approx. 60 min post PhotoPoint therapy) | Leakage of FITC-Dextran, dependence on presence of photosensitizer | Observations immediately post FITC-Dextran administration (extravasation) (hamster A41, MV6401 0.05 mg/kg i.c., 50 J/cm^2, 80 mW/cm^2, FITC-Dextran approx. 30 min post PhotoPoint therapy) | Observations 24 hr post FITC-Dextran administration (hamster A46, MV6401 0.15 mg/kg i.c., 50 J/cm^2, 56.6 mW/cm^2) | Observations immediately post FITC-Dextran administration (extravasation) (hamster A46, MV6401 0.15 mg/kg i.c., 50 J/cm^2, 56.6 mW/cm^2, FITC-Dextran approx. 50 min post PhotoPoint therapy) | Edema apparent in tissue in chamber, 24 hr post FITC-Dextran administration (hamster, in vivo, 0.05 mg/kg) | Vascular damage, 24 hr post FITC-Dextran administration (hamster, in vivo, 0.05 mg/kg)
some minor constriction | ≤ 30 s | – | CCOC(=O)C1=Cc2c3nc(cc4nc(cc5[n-]c(cc6[n-]c2c(C)c6CC)c(C)c5CC)C(C)=C4CC)[C@@H](C)[C@]13CC.[Cl-].[Cl-].[Sn] (racemic) [SnET2, tin ethyl etiopurpurin] | Results as for Animal A35. | Results as for Animal A35. | Results as for Animal A35. | Results as for Animal A35. | only occurred when the photosensitizer (either MV6401 or SnET2) was present | – | – | – | – | –
– | ≤ 30 s | ≤ 30 s | C=Cc1c(C)c2[n]3c1=CC1=NC(=Cc4c(C)c5c([n]4[In]3[Cl])C(=C3N=C(C=2)[C@@H](C)[C@@H]3CCC(=O)OC)CC5=O)C(CC)=C1C [MV6401, indium methyl pyropheophorbide] | – | – | – | – | only occurred when the photosensitizer (either MV6401 or SnET2) was present | Results as for Animal A35 | Results as for Animal A35. | Results as for Animal A35. | vascular damage. Severe | Gross and microscopic

Source: patent publication US20040044304A1, “Local drug delivery using photosensitizer-mediated and electromagnetic radiation enhanced vascular permeability” (priority 2002, published 2004)
